Assay results: BindingDB's records for doi:10.1021/acsmedchemlett.7b00157 (Novartis Institutes For Biomedical Research, 2017)

Key:
[1] = Antagonist activity at DP2 receptor in human whole assessed as inhibition of DK-PGD2-induced eosinophils shape change preincubated for 5 mins followed by DK-PGD2 addition measured after 5 mins by flow cytometry
[2] = biological target: T1, Prostaglandin D2 receptor 2 (Homo sapiens, UniProt Q9Y5Y4); assay: Antagonist activity at DP2 receptor in human whole assessed as inhibition of DK-PGD2-induced eosinophils shape change preincubated for 5 mins followed by DK-PGD2 addition measured after 5 mins by flow cytometry
T1 sequence (Q9Y5Y4 whole entry): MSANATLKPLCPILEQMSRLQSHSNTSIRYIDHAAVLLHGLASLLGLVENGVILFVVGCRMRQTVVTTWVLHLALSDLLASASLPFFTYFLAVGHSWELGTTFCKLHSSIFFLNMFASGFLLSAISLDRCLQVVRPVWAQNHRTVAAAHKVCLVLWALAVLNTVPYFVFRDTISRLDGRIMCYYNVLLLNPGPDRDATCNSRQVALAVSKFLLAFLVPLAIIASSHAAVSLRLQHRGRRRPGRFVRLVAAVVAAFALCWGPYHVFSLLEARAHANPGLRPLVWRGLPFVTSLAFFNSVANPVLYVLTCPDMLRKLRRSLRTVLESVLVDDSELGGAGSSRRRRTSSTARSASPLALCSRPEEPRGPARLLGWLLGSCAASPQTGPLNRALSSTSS

Row | Compound | IC50 [1] [nM] | IC50 [2] [nM]
1 | Cc1c(CC(=O)O)c2cccnc2n1Cc1ccc(S(C)(=O)=O)cc1Cl | 47 | –
2 | Cc1c(CC(=O)O)c2ccccc2n1Cc1ccc(S(C)(=O)=O)cc1 | 188 | –
3 | Cc1c(CC(=O)O)c2cccnc2n1Cc1ccc(S(C)(=O)=O)c(C(F)(F)F)c1 | 11 | –
4 | Cc1cc(S(C)(=O)=O)ccc1Cn1c(C)c(CC(=O)O)c2cccnc21 | 32 | –
5 | Cc1c(CC(=O)O)c2cccnc2n1Cc1ccc(C(F)(F)F)cc1C(F)(F)F | 214 | –
6 | CCS(=O)(=O)c1ccc(Cn2c(C)c(CC(=O)O)c3cccnc32)c(C(F)(F)F)c1 | 4 | –
7 | CCS(=O)(=O)c1ccc(Cn2c(C)c(CC(=O)O)c3cccnc32)c(Cl)c1 | – | 7
